Drawing on US20250025443A1, “COMPOUNDS AND METHODS FOR TREATING CORONA VIRUSES” (CLEAR CREEK BIO, INC., priority 2021, published 2025), this text covers IC50 for 38 compounds.

Each structure is given as a SMILES string. A value given as a limit tells only on which side of the number the result lay.

One test has as its target SARS-CoV-2 Papain-Like Protease (PLpro) (Severe acute respiratory syndrome coronavirus 2 (2019-nCoV) (SARS-CoV-2), UniProt P0DTD1). As to the kind of experiment: biochemical. Particulars: PLpro enzymatic fluorescence assay; class symbols; read-out: PLpro IC50.
As to `Cc1ccc(OCC2CN(C)C2)cc1C(=O)NC1(c2cccc3ccccc23)CC1` [Compound 427, 2-Methyl-5-((1-methylazetidin-3-yl)methoxy)-N-(1-(naphthalen-1-yl)cyclopropyl)benzamide], the IC50 was less than 0.1 µM.
As to `Cc1ccc(OCC2CCN2C)cc1C(=O)NC1(c2cccc3ccc(F)cc23)CC1` (centres unmarked) [Compound 444, N-(1-(7-Fluoronaphthalen-1-yl)cyclopropyl)-2-methyl-5-((1-methylazetidin-2-yl)methoxy)benzamide], the IC50 is less than 0.1 µM.
`Cc1ccc(OCC(C)N)cc1C(=O)NC1(c2cccc3cnccc23)CC1` (centres unmarked) [Compound 446, 5-(2-Aminopropoxy)-N-(1-(isoquinolin-5-yl)cyclopropyl)-2-methylbenzamide]: the IC50 is less than 0.1 µM.
The same measure, in the same setting: the result for `Cc1ccc(OCC2CCN2C)cc1C(=O)NC1(c2nccc3ccccc23)CC1` (centres unmarked) [Compound 454, N-(1-(Isoquinolin-1-yl)cyclopropyl)-2-methyl-5-((1-methylazetidin-2-yl)methoxy)benzamide] reads 0.1 to 1 µM.
The same measure, in the same setting: the result for `COc1cc2c(C3(NC(=O)c4cc(OCC5CCN5C)ccc4C)CC3)cccc2cn1` (centres unmarked) [Compound 456, N-(1-(3-Methoxyisoquinolin-5-yl)cyclopropyl)-2-methyl-5-((1-methylazetidin-2-yl)methoxy)benzamide] reads less than 0.1 µM.

The same test, now with this note: SARS-CoV-2 PLpro enzymatic fluorescence assay; read-out: PLpro IC50.
Take `Cc1ccc(N2CCNCC2)cc1C(=O)NC1(c2cccc3ccccc23)CC1` [Compound 410, 2-Methyl-N-(1-(naphthalen-1-yl)cyclopropyl)-5-(piperazin-1-yl)benzamide]: the IC50 was less than 0.1 µM.
In the case of `Cc1ccc(N2CCCNCC2)cc1C(=O)NC1(c2cccc3ccccc23)CC1` [Compound 411, 5-(1,4-Diazepan-1-yl)-2-methyl-N-(1-(naphthalen-1-yl)cyclopropyl)benzamide], the IC50 was less than 0.1 µM.
Still for that read-out and setting: the result for `Cc1ccc(NCCN(C)C)cc1C(=O)NC1(c2cccc3ccccc23)CC1` [Compound 412] reads less than 0.1 µM; that for `Cc1ccc(C2CCNC2)cc1C(=O)NC1(c2cccc3ccccc23)CC1` (centres unmarked) [Compound 413, 2-Methyl-N-(1-(naphthalen-1-yl)cyclopropyl)-5-(pyrrolidin-3-yl)benzamide], less than 0.1 µM; that for `Cc1ccc(OC[C@H]2C[C@H](O)CN2)cc1C(=O)NC1(c2cccc3ccccc23)CC1` [Compound 414, 5-(((2R,4S)-4-Hydroxypyrrolidin-2-yl)methoxy)-2-methyl-N-(1-(naphthalen-1-yl)cyclopropyl)benzamide], less than 0.1 µM.
Still for that read-out and setting: the result for `Cc1ccc(OCCN(C)C)cc1C(=O)NC1(c2cccc3[nH]c4ccccc4c23)CC1` [Compound 415, N-(1-(9H-Carbazol-4-yl)cyclopropyl)-5-(2-(dimethylamino)ethoxy)-2-methylbenzamide] reads 0.1 to 1 µM; that for `Cc1ccc(OCCN(C)C)cc1C(=O)NC1(c2cccc3ccc(O)cc23)CC1` [Compound 417, 5-(2-(Dimethylamino)ethoxy)-N-(1-(7-hydroxynaphthalen-1-yl)cyclopropyl)-2-methylbenzamide], less than 0.1 µM; that for `Cc1ccc(N2CCN(C)CC2)cc1C(=O)NC1(c2cccc3ccccc23)CC1` [Compound 418, 2-Methyl-5-(4-methylpiperazin-1-yl)-N-(1-(naphthalen-1-yl)cyclopropyl)benzamide], less than 0.1 µM.
On the same count and under the same terms, the result for `COc1cc(C2(NC(=O)c3cc(OC[C@@H]4CCCN4)ccc3C)CC2)c2ccccc2c1` [Compound 419, (S)-N-(1-(3-Methoxynaphthalen-1-yl)cyclopropyl)-2-methyl-5-(pyrrolidin-2-ylmethoxy)benzamide] reads less than 0.1 µM; that for `Cc1ccc(OCCN(C)C)cc1C(=O)NC1(c2cc(-c3cccs3)cc3ccccc23)CC1` [Compound 420, 5-(2-(Dimethylamino)ethoxy)-2-methyl-N-(1-(3-(thiophen-2-yl)naphthalen-1-yl)cyclopropyl)benzamide], less than 0.1 µM.
Consider `Cc1ccc(N(C)CCN(C)C)cc1C(=O)NC1(c2cccc3ccccc23)CC1` [Compound 421], for which the half-inhibitory concentration (IC50) was less than 0.1 µM.
The same measure, in the same setting: the result for `CC[S+]([O-])c1cc(C2(NC(=O)c3cc(OCCN(C)C)ccc3C)CC2)c2ccccc2c1` (centres unmarked) [Compound 423, 5-(2-(Dimethylamino)ethoxy)-N-(1-(3-(ethylsulfinyl)naphthalen-1-yl)cyclopropyl)-2-methylbenzamide] reads less than 0.1 µM; that for `Cc1ccc(OCCNS(C)(=O)=O)cc1C(=O)NC1(c2cccc3ccccc23)CC1` [Compound 424, 2-Methyl-5-(2-(methylsulfonamido)ethoxy)-N-(1-(naphthalen-1-yl)cyclopropyl)benzamide], 0.1 to 1 µM; that for `CC(=O)NCCOc1ccc(C)c(C(=O)NC2(c3cccc4ccccc34)CC2)c1` [Compound 425, 5-(2-Acetamidoethoxy)-2-methyl-N-(1-(naphthalen-1-yl)cyclopropyl)benzamide], 0.1 to 1 µM.
The same measure, in the same setting: the result for `CNCc1nc2cc(C)c(C(=O)NC3(c4cccc5ccccc45)CC3)cc2o1` [Compound 426, 5-Methyl-2-((methylamino)methyl)-N-(1-(naphthalen-1-yl)cyclopropyl)benzo[d]oxazole-6-carboxamide] reads 0.1 to 1 µM; that for `COC(=O)CCc1ccc(C)c(C(=O)NC2(c3cccc4ccccc34)CC2)c1` [Compound 431, Methyl 3-(4-methyl-3-((1-(naphthalen-1-yl)cyclopropyl)carbamoyl)phenyl) propanoate], 0.1 to 1 µM.
Regarding `Cc1ccc(OCC2CCN2C)cc1C(=O)NC1(c2cccc3c2OCCO3)CC1` (centres unmarked) [Compound 432, N-(1-(2,3-Dihydrobenzo[b][1,4]dioxin-5-yl)cyclopropyl)-2-methyl-5-((1-methylazetidin-2-yl)methoxy)benzamide], the IC50 was in the range of 0.1 to 1 µM.
On to `Cc1ccc(OCC2CCN2C)cc1C(=O)NC1(c2cc(O)cc3ccccc23)CC1` (centres unmarked) [Compound 433, N-(1-(3-Hydroxynaphthalen-1-yl)cyclopropyl)-2-methyl-5-((1-methylazetidin-2-yl)methoxy)benzamide], for which the IC50 is less than 0.1 µM.
Consider `COc1cc(C2(NC(=O)c3cc(OCCN(C)C)ccc3C)CC2)c2cccnc2c1` [Compound 434, 5-(2-(Dimethylamino)ethoxy)-N-(1-(7-methoxyquinolin-5-yl)cyclopropyl)-2-methylbenzamide], for which the IC50 is less than 0.1 µM.
On the same count and under the same terms, the result for `Cc1ccc(COC2CNC2)cc1C(=O)NC1(c2cccc3ccccc23)CC1` [Compound 435, 5-((Azetidin-3-yloxy)methyl)-2-methyl-N-(1-(naphthalen-1-yl)cyclopropyl)benzamide] reads 0.1 to 1 µM; that for `Cc1ccc(OCC2CCN2C)cc1C(=O)NC1(c2cccc3nc(Cl)ccc23)CC1` (centres unmarked) [Compound 436, N-(1-(2-Chloroquinolin-5-yl)cyclopropyl)-2-methyl-5-((1-methylazetidin-2-yl)methoxy)benzamide], less than 0.1 µM.
Take `Cc1ccc(OC[C@H]2C[C@@H](F)CN2C)cc1C(=O)NC1(c2cccc3ccccc23)CC1` [Compound 437, 5-(((2R,4R)-4-Fluoro-1-methylpyrrolidin-2-yl)methoxy)-2-methyl-N-(1-(naphthalen-1-yl)cyclopropyl)benzamide]: the IC50 was less than 0.1 µM.
The same measure, in the same setting: the result for `Cc1ccc(OCCN(C)C)cc1C(=O)NC1(c2cc(C#N)cc3ccccc23)CC1` [Compound 443, N-(1-(3-Cyanonaphthalen-1-yl)cyclopropyl)-5-(2-(dimethylamino)ethoxy)-2-methylbenzamide] reads less than 0.1 µM; that for `COc1cc(C2(NC(=O)c3cc(OCC(C)N)ccc3C)CC2)c2ccccc2c1` (centres unmarked) [Compound 445, 5-(2-Aminopropoxy)-N-(1-(3-methoxynaphthalen-1-yl)cyclopropyl)-2-methylbenzamide], less than 0.1 µM; that for `Cc1ccc(COC2CN(C)C2)cc1C(=O)NC1(c2cccc3ccccc23)CC1` [Compound 447, 2-Methyl-5-(((1-methylazetidin-3-yl)oxy)methyl)-N-(1-(naphthalen-1-yl)cyclopropyl)benzamide], 0.1 to 1 µM.
The same measure, in the same setting: the result for `C#CC(NC(=O)c1cc(OCC2CCN2C)ccc1C)c1cccc2ccccc12` (centres unmarked) [Compound 448, 2-Methyl-5-((1-methylazetidin-2-yl)methoxy)-N-(1-(naphthalen-1-yl)prop-2-yn-1-yl)benzamide] reads 1 to 5 µM; that for `Cc1ccc(CCC2CCN2)cc1C(=O)NC1(c2cccc3ccccc23)CC1` (centres unmarked) [Compound 449, 5-(2-(Azetidin-2-yl)ethyl)-2-methyl-N-(1-(naphthalen-1-yl)cyclopropyl)benzamide], less than 0.1 µM; that for `COc1cc(C2(NC(=O)c3cc(OCC4CCN4C)ccc3C)COC2)c2ccccc2c1` (centres unmarked) [Compound 450, N-(3-(3-Methoxynaphthalen-1-yl)oxetan-3-yl)-2-methyl-5-((1-methylazetidin-2-yl)methoxy)benzamide], less than 0.1 µM.
Turning to `CNCCOc1ccc(C)c(C(=O)NC2(c3cccc4ccccc34)COC2)c1` [Compound 451, 2-Methyl-5-(2-(methylamino)ethoxy)-N-(3-(naphthalen-1-yl)oxetan-3-yl)benzamide], the IC50 was less than 0.1 µM.
The same measure, in the same setting: the result for `Cc1ccc(CCC(N)=O)cc1C(=O)NC1(c2cccc3ccccc23)CC1` [Compound 452, 5-(3-Amino-3-oxopropyl)-2-methyl-N-(1-(naphthalen-1-yl)cyclopropyl)benzamide] reads 0.1 to 1 µM; that for `CNCCOc1ccc(C)c(C(=O)NC2(c3cccc4ccccc34)CNC2)c1` [Compound 453, 2-Methyl-5-(2-(methylamino)ethoxy)-N-(3-(naphthalen-1-yl)azetidin-3-yl)benzamide], more than 5 µM; that for `Cc1ccc(CCC2CCN2C)cc1C(=O)NC1(c2cccc3ccccc23)CC1` (centres unmarked) [Compound 455, 2-Methyl-5-(2-(1-methylazetidin-2-yl)ethyl)-N-(1-(naphthalen-1-yl)cyclopropyl)benzamide], less than 0.1 µM.
Same read-out and setting: the result for `Cc1ccc(OCC2CCN2C)cc1C(=O)NC1(c2c(C(C)C)ccc3ccccc23)CC1` (centres unmarked) [Compound 457, N-(1-(2-Isopropylnaphthalen-1-yl)cyclopropyl)-2-methyl-5-((1-methylazetidin-2-yl)methoxy)benzamide] reads 0.1 to 1 µM.
